Measurements from patent publication US11655235B2, “Pyrrolidine and piperidine compounds” (YUHAN CORPORATION, priority 2019, dated 2023).

Key:
Assay type in all cases: biochemical
DPP4 = DPP4 (Homo sapiens, UniProt P27487); assay: DPP4 inhibition, fluorogenic substrate H-Gly-Pro-AMC; design: purchased R&D Systems; conditions: recombinant human DPP4
recombinant human DPP7 = target: T1, recombinant human DPP7 (Homo sapiens, UniProt Q9UHL4); assay: DPP7 inhibition, fluorogenic substrate Lys-Pro-AMC; conditions: recombinant human DPP7
T1 construct: purchased R&D Systems
Procedure, shortened: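 Enzyme per reaction: 50 ng DPP9, 20 ng DPP8, 10 ng each DPP7 and PREP. Compounds were serially diluted (8 points, up to 0.5% DMSO) and incubated at 25 °C.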

recombinant human DPP9 = target: T2, recombinant human DPP9 (Homo sapiens, UniProt Q86TI2); assay: DPP9 inhibition, fluorogenic substrate H-Gly-Pro-AMC; conditions: recombinant human DPP9
T2 construct: purchased R&D Systems
Procedure: (§1) The compounds according to the present technology were evaluated in terms of the inhibitory effect on the activity of dipeptidyl peptidases including FAP by using a substrate producing fluorescent substances upon enzymatic decomposition. The test was conducted at 25° C. to get a final reaction volume of 100 μL in a 96 black well plate. […] Briefly, the test compounds were dissolved in dimethyl sulfoxide (DMSO) at a concentration of 20 mM and then subjected to serial dilution, thereby creating an 8 point curve. As for the control group, a 6 point curve created by serial dilution of Talabostat in the same buffer solution was used. Fluorescence intensity was measured using a microplate reader (Flexstation3, Molecular Devices) under the wavelength condition exciting at 380 nm and reading the emission at 460 nm. The inhibitory effect of the test compounds was measured as a decrease (%) in the signal rate as compared to the control group without any inhibitor. Data was fixed to a logistic model with four variables and IC50 value was calculated using GraphPad Prism program. As for recombinant human DPP4 (R&D Systems), 25 mM tris (pH 8.0) buffer as a buffer solution and H-Gly-Pro-AMC (Bachem) as a substrate were used. As for recombinant human DPP7 (R&D Systems), 25 mM MES (pH 6.0) buffer as a buffer solution and Lys-Pro-AMC (Bachem) as a substrate were used. As for recombinant human DPP8 (PBS Bioscience), as a buffer solution, a 10 mM tris (pH 7.4) buffer comprising 10 mM of magnesium chloride and 0.05% of Tween 20, and Z-Ala-Pro-AMC (BPS Bioscience) as a substrate were used. As for recombinant human DPP9 (R&D Systems), a 25 mM tris (pH 8.0) buffer as a buffer solution and H-Gly-Pro-AMC (Bachem) as a substrate were used. As for recombinant human PREP (R&D System), as a buffer solution, a 25 mM tris (pH 7.5) buffer comprising 250 mM sodium chloride and 2.5 mM DTT (Dithiolthreitol), and Z-Gly-Pro-AMC (Bachem) as a substrate were used. The evaluation was made by using 10 ng of DPP4, PDD7, and PREP, 20 ng of DPP8, and 50 ng of DPP9 based on the final reaction. In the evaluation of DPP4, the test compounds were subjected to serial dilution in a buffer under the condition containing up to 0.1% of DMSO. In the evaluation of DPP7, DPP8, DPP9, and PREP, the test compounds were subjected to serial dilution in each buffer under the condition containing up to 0.5% of DMSO.

Recombinant human FAP = target: T3, Recombinant human FAP (Homo sapiens, UniProt Q12884); assay: FAP FRET assay, FGF21-sequence FRET peptide substrate; conditions: FRET peptide with human FGF21 sequence, 6 μM, 37° C.
T3 construct: purchased R&D systems
T3 sequence (Q12884 1-760): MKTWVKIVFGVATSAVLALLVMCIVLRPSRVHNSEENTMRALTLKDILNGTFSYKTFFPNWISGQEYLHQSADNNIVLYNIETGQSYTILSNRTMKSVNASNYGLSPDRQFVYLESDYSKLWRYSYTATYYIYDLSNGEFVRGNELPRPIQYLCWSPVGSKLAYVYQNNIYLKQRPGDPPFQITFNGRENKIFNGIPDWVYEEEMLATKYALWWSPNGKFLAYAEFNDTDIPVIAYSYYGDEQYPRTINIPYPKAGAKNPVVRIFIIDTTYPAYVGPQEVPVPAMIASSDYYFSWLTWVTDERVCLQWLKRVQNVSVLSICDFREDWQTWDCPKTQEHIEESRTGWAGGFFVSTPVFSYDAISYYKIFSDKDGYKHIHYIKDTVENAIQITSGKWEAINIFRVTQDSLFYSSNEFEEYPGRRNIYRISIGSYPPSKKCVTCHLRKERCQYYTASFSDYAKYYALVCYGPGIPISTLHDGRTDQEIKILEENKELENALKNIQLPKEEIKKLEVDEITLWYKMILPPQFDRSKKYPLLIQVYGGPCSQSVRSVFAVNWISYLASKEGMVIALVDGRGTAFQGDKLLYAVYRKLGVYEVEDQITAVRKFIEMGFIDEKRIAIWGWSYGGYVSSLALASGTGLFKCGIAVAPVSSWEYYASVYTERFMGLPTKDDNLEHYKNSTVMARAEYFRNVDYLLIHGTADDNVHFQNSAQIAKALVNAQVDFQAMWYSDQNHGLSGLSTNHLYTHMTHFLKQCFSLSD
Procedure, shortened: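 Recombinant human FAP, 10 ng per reaction, in 50 mM HEPES pH 7.2 with 150 mM NaCl, 0.1 mg/ml BSA, 1 mM EDTA; HyLite Fluor 488/QXL 520 FRET peptide of human FGF21 sequence at 6 μM final, ≤0.1% DMSO, 37° C. IC50 from 8-point curves by four-parameter logistic fit.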

recombinant human PREP = target: T4, recombinant human PREP (Homo sapiens, UniProt P48147); assay: PREP inhibition, fluorogenic substrate Z-Gly-Pro-AMC; conditions: Inhibitory Activity (IC50, nM) PREP, recombinant human PREP
T4 construct: purchased R&D System
T4 sequence (P48147 1-710): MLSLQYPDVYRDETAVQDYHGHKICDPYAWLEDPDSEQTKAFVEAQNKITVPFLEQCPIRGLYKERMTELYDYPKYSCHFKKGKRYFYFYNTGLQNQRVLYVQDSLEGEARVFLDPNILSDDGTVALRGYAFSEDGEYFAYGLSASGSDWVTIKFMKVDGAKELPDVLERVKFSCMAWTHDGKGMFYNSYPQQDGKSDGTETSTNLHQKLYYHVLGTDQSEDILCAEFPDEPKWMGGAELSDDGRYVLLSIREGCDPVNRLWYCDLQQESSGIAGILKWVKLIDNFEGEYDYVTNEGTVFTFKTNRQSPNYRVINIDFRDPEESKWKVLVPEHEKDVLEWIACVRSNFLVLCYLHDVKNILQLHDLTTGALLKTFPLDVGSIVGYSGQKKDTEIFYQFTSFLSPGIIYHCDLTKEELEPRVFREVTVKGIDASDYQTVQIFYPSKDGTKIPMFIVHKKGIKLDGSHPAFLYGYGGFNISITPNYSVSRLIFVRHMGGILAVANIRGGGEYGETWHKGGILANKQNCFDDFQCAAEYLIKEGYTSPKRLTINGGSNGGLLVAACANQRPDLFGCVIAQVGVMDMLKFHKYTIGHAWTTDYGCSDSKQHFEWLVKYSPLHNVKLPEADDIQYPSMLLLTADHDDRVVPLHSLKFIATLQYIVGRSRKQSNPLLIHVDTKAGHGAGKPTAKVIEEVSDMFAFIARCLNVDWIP
Procedure: as §1

T2 sequence (Q86TI2 whole entry): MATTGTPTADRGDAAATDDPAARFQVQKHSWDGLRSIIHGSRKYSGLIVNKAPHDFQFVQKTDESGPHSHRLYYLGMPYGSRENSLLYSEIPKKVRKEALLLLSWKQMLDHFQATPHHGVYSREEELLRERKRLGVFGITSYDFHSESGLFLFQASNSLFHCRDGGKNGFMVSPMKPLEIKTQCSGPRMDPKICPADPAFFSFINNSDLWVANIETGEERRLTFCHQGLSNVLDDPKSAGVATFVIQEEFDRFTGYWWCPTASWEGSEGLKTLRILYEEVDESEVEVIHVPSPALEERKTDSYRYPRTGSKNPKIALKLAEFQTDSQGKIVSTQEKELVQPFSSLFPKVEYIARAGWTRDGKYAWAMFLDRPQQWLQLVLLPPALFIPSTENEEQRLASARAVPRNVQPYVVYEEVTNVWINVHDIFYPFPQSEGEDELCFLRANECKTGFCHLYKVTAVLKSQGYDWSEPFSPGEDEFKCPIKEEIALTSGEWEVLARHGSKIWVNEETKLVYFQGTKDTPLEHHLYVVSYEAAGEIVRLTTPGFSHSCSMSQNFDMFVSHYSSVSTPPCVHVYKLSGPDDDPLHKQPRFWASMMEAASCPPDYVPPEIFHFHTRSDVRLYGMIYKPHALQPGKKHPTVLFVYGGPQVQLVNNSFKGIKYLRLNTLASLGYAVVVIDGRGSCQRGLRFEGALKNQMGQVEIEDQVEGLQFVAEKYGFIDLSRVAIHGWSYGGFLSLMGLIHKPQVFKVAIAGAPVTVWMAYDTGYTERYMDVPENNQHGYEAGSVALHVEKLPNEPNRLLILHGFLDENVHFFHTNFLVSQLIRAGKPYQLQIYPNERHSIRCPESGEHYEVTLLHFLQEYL
Sequence of DPP4 (P27487 whole entry): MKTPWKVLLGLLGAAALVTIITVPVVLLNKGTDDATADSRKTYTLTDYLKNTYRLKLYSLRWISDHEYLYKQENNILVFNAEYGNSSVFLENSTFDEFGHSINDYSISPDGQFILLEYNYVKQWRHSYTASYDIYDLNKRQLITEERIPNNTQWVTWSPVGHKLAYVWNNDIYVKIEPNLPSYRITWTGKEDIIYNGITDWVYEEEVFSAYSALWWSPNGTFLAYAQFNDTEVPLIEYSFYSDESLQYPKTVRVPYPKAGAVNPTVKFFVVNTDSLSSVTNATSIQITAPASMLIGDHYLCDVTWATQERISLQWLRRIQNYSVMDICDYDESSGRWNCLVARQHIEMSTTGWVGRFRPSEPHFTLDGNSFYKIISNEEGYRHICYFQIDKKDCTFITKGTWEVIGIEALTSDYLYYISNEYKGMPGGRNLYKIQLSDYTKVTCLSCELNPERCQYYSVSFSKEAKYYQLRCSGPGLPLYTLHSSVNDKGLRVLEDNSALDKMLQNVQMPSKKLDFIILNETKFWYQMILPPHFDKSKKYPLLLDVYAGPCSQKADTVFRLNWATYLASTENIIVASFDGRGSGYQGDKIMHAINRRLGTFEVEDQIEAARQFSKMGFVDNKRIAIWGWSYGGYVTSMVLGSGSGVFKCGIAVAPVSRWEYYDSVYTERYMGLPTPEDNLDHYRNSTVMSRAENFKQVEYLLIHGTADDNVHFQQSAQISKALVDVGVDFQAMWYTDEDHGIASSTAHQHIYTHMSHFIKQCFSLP

SMILES	IC50 (DPP4) [µM]	IC50 (recombinant human DPP7) [µM]	IC50 (recombinant human DPP9) [µM]	IC50 (Recombinant human FAP) [µM]	IC50 (recombinant human PREP) [nM]
N#C[C@@H]1C[C@H](F)CN1C(=O)CN1CC[C@@H](Nc2ccc(C(F)(F)F)c3ncccc23)C1 [Example 183, (2S,4S)-4-fluoro-1-[2-[(3R)-3-[[8-(trifluoromethyl)-5-quinolyl]amino]pyrrolidin-1-yl]acetyl]pyrrolidine-2-carbonitrile]	1.84	1.37	6.77	0.0022	3370
N#C[C@@H]1C[C@H](F)CN1C(=O)CN1CC[C@@H](Nc2cccc3ncc(Cl)cc23)C1 [Example 185, (2S,4S)-4-fluoro-1-[2-[(3R)-3-[(3-chloro-5-quinolyl)amino]pyrrolidin-1-yl]acetyl]pyrrolidine-2-carbonitrile]	0.995	1.3	2.75	0.0021	3550
N#C[C@@H]1C[C@H](F)CN1C(=O)CN1CC[C@@H](Nc2ccc(OC(F)(F)F)c3ncccc23)C1 [Example 186, (2S,4S)-4-fluoro-1-[2-[(3R)-3-[[8-(trifluoromethoxy)-5-quinolyl]amino]pyrrolidin-1-yl]acetyl]pyrrolidine-2-carbonitrile]	2.22	2.02	4.41	0.0027	3590
N#C[C@@H]1C[C@H](F)CN1C(=O)CN1CC[C@@H](Nc2ccnc3c(Cl)cccc23)C1 [Example 189, (2S,4S)-4-fluoro-1-[2-[(3R)-3-[(8-chloro-4-quinolyl)amino]pyrrolidin-1-yl]acetyl]pyrrolidine-2-carbonitrile]	3.5	2.58	1.51	0.01	1150
Cc1cccc2c(N[C@@H]3CCN(CC(=O)N4C[C@@H](F)C[C@H]4C#N)C3)ccnc12 [Example 190, (2S,4S)-4-fluoro-1-[2-[(3R)-3-[(8-methyl-4-quinolyl)amino]pyrrolidin-1-yl]acetyl]pyrrolidine-2-carbonitrile]	12.5	0.0637	1.39	0.0167	1250
N#C[C@@H]1CCCN1C(=O)CN1CC[C@@H](Nc2cc(F)cc3ncccc23)C1 [Example 197, (2S)-1-[2-[(3R)-3-[(7-fluoro-5-quinolyl)amino]pyrrolidin-1-yl]acetyl]pyrrolidine-2-carbonitrile]	13.4	4.12	23.8	0.0052	14700
COc1cc(N[C@@H]2CCN(CC(=O)N3CCC[C@H]3C#N)C2)c2cccnc2c1 [Example 198, (2S)-1-[2-[(3R)-3-[(7-methoxy-5-quinolyl)amino]pyrrolidin-1-yl]acetyl]pyrrolidine-2-carbonitrile]	9.46	0.901	14.9	0.0086	2920
Cc1ccc(N[C@@H]2CCN(CC(=O)N3CCC[C@H]3C#N)C2)c2cccnc12 [Example 200, (2S)-1-[2-[(3R)-3-[(8-methyl-5-quinolyl)amino]pyrrolidin-1-yl]acetyl]pyrrolidine-2-carbonitrile]	5.51	1.7	27.3	0.0063	6090
N#C[C@@H]1CCCN1C(=O)CN1CC[C@@H](Nc2cccc3ncc(Cl)cc23)C1 [Example 203, (2S)-1-[2-[(3R)-3-[(3-chloro-5-quinolyl)amino]pyrrolidin-1-yl]acetyl]pyrrolidine-2-carbonitrile]	4.66	3.26	11.2	0.0009	12200
COc1cnc2cccc(N[C@@H]3CCN(CC(=O)N4CCC[C@H]4C#N)C3)c2c1 [Example 204, (2S)-1-[2-[(3R)-3-[(3-methoxy-5-quinolyl)amino]pyrrolidin-1-yl]acetyl]pyrrolidine-2-carbonitrile]	6.2	3.87	16.2	0.0021	11500
COc1cnc2cccc(N[C@@H]3CCN(CC(=O)N4C[C@@H](F)C[C@H]4C#N)C3)c2c1 [Example 205, (2S,4S)-4-fluoro-1-[2-[(3R)-3-[(3-methoxy-5-quinolyl)amino]pyrrolidin-1-yl]acetyl]pyrrolidine-2-carbonitrile]	0.796	1.76	3.04	0.0026	7500
Cc1cnc2cccc(N[C@@H]3CCN(CC(=O)N4CCC[C@H]4C#N)C3)c2c1 [Example 208, (2S)-1-[2-[(3R)-3-[(3-methyl-5-quinolyl)amino]pyrrolidin-1-yl]acetyl]pyrrolidine-2-carbonitrile]	6.51	1.37	19.2	0.0017	12000
N#C[C@@H]1C[C@H](F)CN1C(=O)CN1CC[C@@H](Nc2ccc3nc(C(F)(F)F)ccc3c2)C1 [Example 210, (2S,4S)-4-fluoro-1-[2-[(3R)-3-[[2-(trifluoromethyl)-6-quinolyl]amino]pyrrolidin-1-yl]acetyl]pyrrolidine-2-carbonitrile]	2.7	0.281	1.3	0.0035	1480
